Laboratory results from the supplement of paper PMC10627819.

Columns and labels:
S. aureus DSM 20231 [1] = test: Bliss interaction score (quartile over a dose matrix) (fitness difference); higher = more antagonism (negative = synergy)
How it was run: (§1)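 The Bliss score takes observed fitness and subtracts the expected fitness, calculated as a product of single-drug fitness values. Those single-drug values were inferred from the combination data. Fitness is OD595 at entry into stationary phase divided by the plate's robust no-drug mean, capped at 1, and the score is summarised by quartiles across technical, biological and donor/recipient replicates.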

B. subtilis 168 = test: as above
How it was run: as §1

S. pneumoniae D39V [2] = test: as above
How it was run: as §1

S. aureus Newman [3] = test: as above
How it was run: as §1

S. aureus DSM 20231 [4] = test: fitness (endpoint OD595 vs no drug) (fraction); higher = more growth
How it was run: (§2)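 Bacterial growth was followed in 384-well plates seeded at OD595 0.01, with 30 µl per well, or 55 µl for S. pneumoniae, in TSB, LB Lennox or CY at 37 °C. OD595 was read every 30 min for 14 h, and each reading had the first reading subtracted as background. Fitness is the background-corrected optical density at entry into stationary phase divided by the robust mean of the no-drug control wells. This ratio is capped at 1.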

S. pneumoniae D39V [5] = test: as above
How it was run: as §2

S. aureus Newman [6] = test: as above
How it was run: as §2
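Throughout, for Bliss interaction score (quartile over a dose matrix): first quartile when negative (synergy) and third quartile when positive (antagonism).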

CC1(C)S[C@@H]2[C@H](NC(=O)[C@H](N)c3ccc(O)cc3)C(=O)N2[C@H]1C(=O)O [Amoxicillin] + Cc1ncc([N+](=O)[O-])n1CCO [Metronidazole]
Conditions | Bliss interaction score
B. subtilis 168 | 0.0817
S. aureus DSM 20231 [1] | 0.0885
S. aureus Newman [3] | 0.0677
S. pneumoniae D39V [2] | -0.0259

Conditions | fitness
S. aureus DSM 20231 [4], first compound 0.0625 µg/mL, partner 0.625 µg/mL | 0.588
S. aureus DSM 20231 [4], first compound 0.125 µg/mL, partner 1.25 µg/mL | 0.428
S. aureus DSM 20231 [4], first compound 0.5 µg/mL, partner 0.625 µg/mL | 0.0108
S. aureus DSM 20231 [4], first compound 0.5 µg/mL, partner 1.25 µg/mL | 0.0138
S. aureus DSM 20231 [4], first compound 0.5 µg/mL, partner 2.5 µg/mL | 0.0153
S. aureus Newman [6], first compound 0.0625 µg/mL, partner 0.625 µg/mL | 0.835
S. aureus Newman [6], first compound 0.0625 µg/mL, partner 0.781 µg/mL | 0.922
S. aureus Newman [6], first compound 0.0625 µg/mL, partner 1.25 µg/mL | 0.906
S. aureus Newman [6], first compound 0.0625 µg/mL, partner 1.562 µg/mL | 0.917
S. aureus Newman [6], first compound 0.0625 µg/mL, partner 2.5 µg/mL | 0.87
S. aureus Newman [6], first compound 0.0625 µg/mL, partner 3.124 µg/mL | 0.913
S. aureus Newman [6], first compound 0.125 µg/mL, partner 0.625 µg/mL | 0.839
S. aureus Newman [6], first compound 0.125 µg/mL, partner 0.781 µg/mL | 0.952
S. aureus Newman [6], first compound 0.125 µg/mL, partner 1.25 µg/mL | 0.905
S. aureus Newman [6], first compound 0.125 µg/mL, partner 1.562 µg/mL | 0.972
S. aureus Newman [6], first compound 0.125 µg/mL, partner 2.5 µg/mL | 0.836
S. aureus Newman [6], first compound 0.125 µg/mL, partner 3.124 µg/mL | 0.957
S. aureus Newman [6], first compound 0.25 µg/mL, partner 0.625 µg/mL | 0.799
S. aureus Newman [6], first compound 0.25 µg/mL, partner 0.781 µg/mL | 0.945
S. aureus Newman [6], first compound 0.25 µg/mL, partner 1.25 µg/mL | 0.789
S. aureus Newman [6], first compound 0.25 µg/mL, partner 1.562 µg/mL | 0.951
S. aureus Newman [6], first compound 0.25 µg/mL, partner 2.5 µg/mL | 0.816
S. aureus Newman [6], first compound 0.25 µg/mL, partner 3.124 µg/mL | 0.929
S. pneumoniae D39V [5], first compound 0.0008 µg/mL, partner 1.073 µg/mL | 0.958
S. pneumoniae D39V [5], first compound 0.0008 µg/mL, partner 2.145 µg/mL | 0.946
S. pneumoniae D39V [5], first compound 0.0008 µg/mL, partner 4.29 µg/mL | 0.919
S. pneumoniae D39V [5], first compound 0.0015 µg/mL, partner 1.073 µg/mL | 0.972
S. pneumoniae D39V [5], first compound 0.0015 µg/mL, partner 1.25 µg/mL | 0.988
S. pneumoniae D39V [5], first compound 0.0015 µg/mL, partner 2.145 µg/mL | 0.926
S. pneumoniae D39V [5], first compound 0.0015 µg/mL, partner 2.5 µg/mL | ≥ 1
S. pneumoniae D39V [5], first compound 0.0015 µg/mL, partner 4.29 µg/mL | 0.941
S. pneumoniae D39V [5], first compound 0.0015 µg/mL, partner 5 µg/mL | 0.995
S. pneumoniae D39V [5], first compound 0.003 µg/mL, partner 1.073 µg/mL | 0.938
S. pneumoniae D39V [5], first compound 0.003 µg/mL, partner 1.25 µg/mL | 0.97
S. pneumoniae D39V [5], first compound 0.003 µg/mL, partner 2.145 µg/mL | 0.914
S. pneumoniae D39V [5], first compound 0.003 µg/mL, partner 2.5 µg/mL | 0.989
S. pneumoniae D39V [5], first compound 0.003 µg/mL, partner 4.29 µg/mL | 0.93
S. pneumoniae D39V [5], first compound 0.003 µg/mL, partner 5 µg/mL | 0.946

fitness, S. pneumoniae D39V [5], one replicate
Conditions | partner 1.25 µg/mL | partner 2.5 µg/mL | partner 5 µg/mL
first compound 0.0008 µg/mL | ≥ 1 | ≥ 1 | ≥ 1
first compound 0.006 µg/mL | 0.561 | 0.587 | 0.574

CC1(C)S[C@@H]2[C@H](NC(=O)[C@H](N)c3ccc(O)cc3)C(=O)N2[C@H]1C(=O)O [Amoxicillin] + Cc1onc(-c2ccccc2)c1C(=O)N[C@@H]1C(=O)N2[C@@H]1SC(C)(C)[C@@H]2C(=O)O [Oxacillin]
Conditions | Bliss interaction score
B. subtilis 168 | 0.031
S. aureus DSM 20231 [1] | 0.104
S. aureus Newman [3] | 0.0431
S. pneumoniae D39V [2] | -0.0929

Conditions | fitness
S. aureus DSM 20231 [4], first compound 0.0625 µg/mL, partner 0.0156 µg/mL | 0.52
S. aureus DSM 20231 [4], first compound 0.0625 µg/mL, partner 0.0312 µg/mL | 0.56
S. aureus DSM 20231 [4], first compound 0.0625 µg/mL, partner 0.0625 µg/mL | 0.459
S. aureus DSM 20231 [4], first compound 0.125 µg/mL, partner 0.0156 µg/mL | 0.342
S. aureus DSM 20231 [4], first compound 0.125 µg/mL, partner 0.0625 µg/mL | 0.263
S. aureus DSM 20231 [4], first compound 0.25 µg/mL, partner 0.0156 µg/mL | 0.107
S. aureus DSM 20231 [4], first compound 0.25 µg/mL, partner 0.0312 µg/mL | 0.0945
S. aureus DSM 20231 [4], first compound 0.25 µg/mL, partner 0.0625 µg/mL | 0.06
S. aureus DSM 20231 [4], first compound 0.5 µg/mL, partner 0.0156 µg/mL | 0.0188
S. aureus DSM 20231 [4], first compound 0.5 µg/mL, partner 0.0312 µg/mL | 0.0143
S. aureus DSM 20231 [4], first compound 0.5 µg/mL, partner 0.0625 µg/mL | 0.021
S. aureus Newman [6], first compound 0.0625 µg/mL, partner 0.0156 µg/mL | 0.724
S. aureus Newman [6], first compound 0.0625 µg/mL, partner 0.0312 µg/mL | 0.651
S. aureus Newman [6], first compound 0.0625 µg/mL, partner 0.0625 µg/mL | 0.575
S. aureus Newman [6], first compound 0.125 µg/mL, partner 0.0156 µg/mL | 0.674
S. aureus Newman [6], first compound 0.125 µg/mL, partner 0.0625 µg/mL | 0.547
S. aureus Newman [6], first compound 0.25 µg/mL, partner 0.0156 µg/mL | 0.663
S. pneumoniae D39V [5], first compound 0.0008 µg/mL, partner 0.01 µg/mL | 0.985
S. pneumoniae D39V [5], first compound 0.0008 µg/mL, partner 0.02 µg/mL | 0.831
S. pneumoniae D39V [5], first compound 0.0008 µg/mL, partner 0.04 µg/mL | 0.33
S. pneumoniae D39V [5], first compound 0.0015 µg/mL, partner 0.005 µg/mL | ≥ 1
S. pneumoniae D39V [5], first compound 0.0015 µg/mL, partner 0.01 µg/mL | 0.977
S. pneumoniae D39V [5], first compound 0.0015 µg/mL, partner 0.02 µg/mL | 0.861
S. pneumoniae D39V [5], first compound 0.0015 µg/mL, partner 0.04 µg/mL | 0.266
S. pneumoniae D39V [5], first compound 0.003 µg/mL, partner 0.005 µg/mL | 0.957
S. pneumoniae D39V [5], first compound 0.003 µg/mL, partner 0.01 µg/mL | 0.882
S. pneumoniae D39V [5], first compound 0.003 µg/mL, partner 0.02 µg/mL | 0.825
S. pneumoniae D39V [5], first compound 0.003 µg/mL, partner 0.04 µg/mL | 0.12

fitness, S. pneumoniae D39V [5], one replicate
Conditions | partner 0.005 µg/mL | partner 0.01 µg/mL | partner 0.02 µg/mL
first compound 0.0008 µg/mL | ≥ 1 | – | –
first compound 0.006 µg/mL | 0.587 | 0.476 | 0.147

CC1(C)S[C@@H]2[C@H](NC(=O)[C@H](N)c3ccc(O)cc3)C(=O)N2[C@H]1C(=O)O [Amoxicillin] + Cn1nnc(-c2ccc(-c3ccc(N4C[C@H](CO)OC4=O)cc3F)cn2)n1 [Tedizolid]
Conditions | Bliss interaction score
B. subtilis 168 | -0.0425
S. aureus DSM 20231 [1] | -0.0515
S. aureus Newman [3] | -0.0673
S. pneumoniae D39V [2] | 0.175

fitness
Conditions | partner 0.03125 µg/mL | partner 0.0625 µg/mL | partner 0.125 µg/mL | partner 0.25 µg/mL | partner 0.5 µg/mL
S. aureus DSM 20231 [4], first compound 0.0625 µg/mL | – | 0.65 | 0.395 | 0.151 | –
S. aureus DSM 20231 [4], first compound 0.125 µg/mL | – | – | 0.184 | 0.0385 | –
S. aureus DSM 20231 [4], first compound 0.25 µg/mL | – | 0.0658 | 0.0466 | 0.0313 | –
S. aureus Newman [6], first compound 0.0625 µg/mL | – | 0.853 | – | – | –
S. aureus Newman [6], first compound 0.125 µg/mL | – | 0.807 | – | – | –
S. pneumoniae D39V [5], first compound 0.0008 µg/mL | 0.961 | 0.966 | 0.781 | – | –
S. pneumoniae D39V [5], first compound 0.0015 µg/mL | 0.949 | 0.94 | 0.788 | 0.692 | 0.306
S. pneumoniae D39V [5], first compound 0.003 µg/mL | 0.96 | 0.933 | 0.759 | 0.691 | 0.339

fitness, one replicate
Conditions | partner 0.0625 µg/mL | partner 0.125 µg/mL | partner 0.25 µg/mL | partner 0.5 µg/mL
S. aureus DSM 20231 [4], first compound 0.5 µg/mL | 0.015 | 0.0045 | 0.0057 | –
S. pneumoniae D39V [5], first compound 0.0008 µg/mL | – | – | 0.7 | 0.335
S. pneumoniae D39V [5], first compound 0.006 µg/mL | – | 0.562 | 0.462 | 0.283
